The structures appear in SMILES notation. Where only a bound is given, the exact number is not on record here.

In the test the target is T1, purified recombinant 6HIS-Tev-LRRK2 (1326-2527) (Homo sapiens, UniProt Q5S007).
T1 construct: A LRRK2 cDNA encoding residues 1326-2527 was received from Dundee University; made in house; host or cells: Spodoptera frugiperda (Sf9) insect cells, baculovirus (pFB-HTb)
T1 sequence (Q5S007 1326-2527): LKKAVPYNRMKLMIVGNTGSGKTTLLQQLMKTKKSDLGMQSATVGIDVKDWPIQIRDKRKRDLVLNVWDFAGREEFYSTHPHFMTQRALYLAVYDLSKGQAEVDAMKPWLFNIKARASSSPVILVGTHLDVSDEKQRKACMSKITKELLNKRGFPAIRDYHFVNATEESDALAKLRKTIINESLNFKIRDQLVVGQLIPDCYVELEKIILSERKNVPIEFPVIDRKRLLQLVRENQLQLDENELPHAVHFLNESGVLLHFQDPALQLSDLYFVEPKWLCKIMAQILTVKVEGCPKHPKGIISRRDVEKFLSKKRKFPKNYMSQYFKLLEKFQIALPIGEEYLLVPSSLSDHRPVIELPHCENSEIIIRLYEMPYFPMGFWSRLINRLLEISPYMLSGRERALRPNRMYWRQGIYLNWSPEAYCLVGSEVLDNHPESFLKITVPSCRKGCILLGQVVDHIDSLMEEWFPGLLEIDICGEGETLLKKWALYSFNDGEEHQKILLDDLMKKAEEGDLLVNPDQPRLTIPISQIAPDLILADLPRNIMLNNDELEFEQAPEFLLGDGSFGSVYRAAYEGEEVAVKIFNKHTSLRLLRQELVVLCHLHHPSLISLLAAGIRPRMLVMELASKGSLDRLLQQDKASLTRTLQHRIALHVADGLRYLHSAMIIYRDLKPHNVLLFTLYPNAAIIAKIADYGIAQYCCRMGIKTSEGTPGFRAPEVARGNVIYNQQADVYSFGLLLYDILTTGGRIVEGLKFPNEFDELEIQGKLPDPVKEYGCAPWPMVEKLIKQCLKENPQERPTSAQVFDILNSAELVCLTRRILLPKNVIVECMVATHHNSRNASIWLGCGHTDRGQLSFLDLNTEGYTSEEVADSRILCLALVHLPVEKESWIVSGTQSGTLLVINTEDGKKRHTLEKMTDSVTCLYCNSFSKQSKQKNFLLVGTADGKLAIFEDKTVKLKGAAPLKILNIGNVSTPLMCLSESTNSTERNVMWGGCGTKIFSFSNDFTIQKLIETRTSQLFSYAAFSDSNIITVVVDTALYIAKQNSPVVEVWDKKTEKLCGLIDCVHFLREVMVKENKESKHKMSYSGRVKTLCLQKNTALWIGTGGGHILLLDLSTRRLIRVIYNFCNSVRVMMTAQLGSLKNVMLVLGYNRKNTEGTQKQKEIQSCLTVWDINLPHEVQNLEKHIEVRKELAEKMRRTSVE
Description: Recombinant LRRK2 enzyme peptide substrate TR-FRET assay. Format: biochemical. The note with it: 60 nM LRRK2 (1326-2527), 1 uM Biotin-longer LRRKtide, 10 uM ATP; read-out: recombinant LRRK2 enzyme peptide substrate TR-FRET assay (pIC50) (converted). As for the experimental part:
This gene fragment was subcloned into pFB-HTb (Invitrogen) using BamHI and NotI restriction sites. The LRRK2 plasmid was recombined into the baculovirus genome according to the BAC-to-BAC protocol described by Invitrogen. Transfection into Spodoptera frugiperda (Sf9) insect cells was performed using Cellfectin (Invitrogen), according to the manufacturer's protocol to generate P1 and P2 baculovirus stocks.
Sf9 cells were grown in HyClone SFX (Thermo Scientific) growth media at 27° C., 80 rpm in shake flask until of a sufficient volume to inoculate a bioreactor. […] The cells were infected with P2 Baculovirus at a multiplicity of infection (MOI) of 3. The cultivation was continued for a 48 hour expression phase. The infected cells were removed from the growth media by centrifugation at 2500 g using a Sorvall RC 3C Plus centrifuge at 2500 g for 20 minutes. The cell pellet was immediately frozen and subsequently supplied for purification.
A 260 g pellet was allowed to thaw in a water bath at 27° C. with 800 ml lysis buffer/buffer A (50 mm Tris-HCl pH 8.5, 300 mM NaCl, 1 mm DTT, 10% glycerol, 1 ml/L calbiochem complete protease inhibitor cocktail and benzonase (50 ul/800 ml)) before being dounce homogenised on ice using 20 strokes per 100 ml. The suspension was packed in ice and sonicated at 50% amplitude for 3 min 10 sec on/off using a ¾″ probe. The suspension was then centrifuged at 100,000 g for 90 min, at 4° C.
The lysate (700 ml) was decanted from the insoluble pellet and contacted for 3 h at 4 C with 10 ml His bind Ni NTA resin by end over end mixing. The resin was recovered by centrifugation, 3000 g, 5 min at 4 C, and packed in an XK16 column. The column was then washed with 10 column volumes buffer A, 10 column volumes buffer B (buffer A+1M NaCl) and 10 column volumes buffer C (buffer A+20 mM imidazole). The column was then eluted with 15 column volumes buffer D (buffer A+300 mM imidazole) collecting 2 ml fractions. All washes and elution were conducted at 4 ml/min.
Fractions identified by SDS-PAGE as containing protein of interest were pooled and loaded directly onto a 320 ml SEC Superdex 200 pg column that was pre-equilibrated with buffer E (50 mM Tris-HCl pH 8.5, 300 mM NaCl, 10% glycerol, 1 mM DTT). The column was loaded and eluted with 1.2 column volumes buffer E at 2 ml/min collecting 2 ml fractions. Fractions identified by SDS-PAGE as containing protein of interest were tested for activity.
Production of Biotin-Longer LRRKtide
The resulting crude peptide was cleaved from the resin using a 95:2.5:2.5 mix of trifluoroacetic acid:triisopropylsilane:water.
Recombinant LRRK2 Enzyme Peptide Substrate TR-FRET Assay
Assay Protocol • 1. A 10 mM test compound was dissolved in 100% DMSO and serially diluted 1 in 4. 100 nL was then added to a 384 well low volume black plate, excluding columns 6 and 18. 100 nL of DMSO was added to columns 6 and 18 as controls wells. […] Test plates were then incubated for 30 minutes at room temperature. • 3. 3 uL ‘substate solution’ containing 2 uM Biotin-longer LRRKtide peptide substrate and 20 uM ATP was added to all wells of the plate using a multidrop combi dispenser giving a final assay concentration of 1 uM Biotin-longer LRRKtide and 10 uM ATP. Test plates were then incubated for 2 hours at room temperature. (Incubation may vary depending on rate and linearity of reaction with different enzyme batches). • 4. […] Data is analysed using ActivityBase software (IDBS). Dilutions and concentrations of reagents determined on a batch to batch basis
In the case of `CCOc1nc(Nc2ccc(C(=O)N3CCOCC3)cc2OC)nc2[nH]ccc12` [Example E1, (4-((4-ethoxy-7H-pyrrolo-[2,3-d]-pyrimidin-2-yl)amino)-3-methoxyphenyl)(morpholino)methanone], the IC50 is 12.6 nM. For the compound `CCOc1nc(Nc2cc(F)c(C(=O)N3CCOCC3)cc2OC)nc2[nH]ccc12` [Example E2, (4-((4-ethoxy-7H-pyrrolo-[2,3-d]-pyrimidin-2-yl)amino)-2-fluoro-5-methoxyphenyl)(morpholino)methanone], the IC50 was 7.94 nM. As for `CCOc1nc(Nc2ccc(C(=O)N3CCN(C)CC3)cc2OC)nc2[nH]ccc12` [Example E3, (4-((4-ethoxy-7H-pyrrolo-[2,3-d]-pyrimidin-2-yl)amino)-3-methoxyphenyl)(4-methylpiperazin-1-yl)-methanone], the IC50 was 7.94 nM. To `CCOc1nc(Nc2ccc(C(=O)N3CCC(N4CCN(C)CC4)CC3)cc2OC)nc2[nH]ccc12` [Example E4, (4-((4-ethoxy-7H-pyrrolo-[2,3-d]pyrimidin-2-yl)amino)-3-methoxyphenyl)(4-(4-methylpiperazin-1-yl)-piperidin-1-yl)-methanone] belongs no more than 10 nM. For the compound `CCOc1nc(Nc2ccc(C(=O)N3CCOCC3)cc2)nc2[nH]ccc12` [Example E9, (4-((4-ethoxy-7H-pyrrolo-[2,3-d]pyrimidin-2-yl)amino)phenyl)(morpholino)methanone], the IC50 was no more than 10 nM. To `CCOc1nc(Nc2ccc(C(=O)N3CCC4(CC3)CN(C)C4)cc2OC)nc2[nH]ccc12` [Example E13, (4-((4-ethoxy-7H-pyrrolo-[2,3-d]-pyrimidin-2-yl)amino)-3-methoxyphenyl)(2-methyl-2,7-diazaspiro-[3.5]-nonan-7-yl)methanone] belongs no more than 10 nM; to `CCOc1nc(Nc2ccc(C(=O)N3CCC4(CC3)CC4)cc2OC)nc2[nH]ccc12` [Example E16, (4-((4-ethoxy-7H-pyrrolo-[2,3-d]-pyrimidin-2-yl)amino)-3-methoxyphenyl)(6-azaspiro-[2.5]octan-6-yl)methanone], 15.8 nM; to `CCOc1cc(C(=O)N2CCOCC2)ccc1Nc1nc(OCC)c2cc[nH]c2n1` [Example E20, (3-ethoxy-4-((4-ethoxy-7H-pyrrolo-[2,3-d]pyrimidin-2-yl)amino)phenyl)(morpholino)methanone], 10 nM. To `CCOc1nc(Nc2ccc(C(=O)N3CCN(C)CC3)cc2OC(C)C)nc2[nH]ccc12` [Example E24, (4-((4-ethoxy-7H-pyrrolo-[2,3-d]pyrimidin-2-yl)amino)-3-isopropoxyphenyl)(4-methylpiperazin-1-yl)methanone] belongs 10 nM; to `CCOc1nc(Nc2ccc(C(=O)N3CCOC[C@@H]3C)cc2OC)nc2[nH]ccc12` [Example E27, (S)-(4-((4-ethoxy-7H-pyrrolo-[2,3-d]pyrimidin-2-yl)amino)-3-methoxyphenyl)(3-methylmorpholino)methanone], no more than 10 nM; to `CCOc1nc(Nc2ccc(C(=O)N3CCN(C)CC3)cc2OC)nc2[nH]cc(C)c12` [Example E31, (4-((4-ethoxy-5-methyl-7H-pyrrolo-[2,3-d]pyrimidin-2-yl)amino)-3-methoxyphenyl)(4-methylpiperazin-1-yl)methanone], no more than 10 nM. As to `CCOc1nc(Nc2ccc(C(=O)N3CCN(C)C[C@H]3C)cc2OC)nc2[nH]ccc12` [Example E40, (R)-(2,4-dimethylpiperazin-1-yl)(4-((4-ethoxy-7H-pyrrolo-[2,3-d]-pyrimidin-2-yl)-amino)-3-methoxyphenyl)methanone], the IC50 was 10 nM.
